In US20240398824A1, “Inhibition Of Rip Kinases For Treating Neurodegenerative Disorders” (The Johns Hopkins University, priority 2018, published 2024):

Tested on: α-synuclein PFFs-induced PD mice
Test: α-synuclein PFFs-induced PD mouse model, IHC of ventral midbrain / SN
Type: in vivo
Procedure: Study rationale and objectives: The purpose of this study was to investigate the anti-PD efficacy of Gefitinib, RIPK2 inhibitor, in the α-synuclein PFF model PD. To this end, α-synuclein PFF were injected into the striatum of NOD2 KO or RIPK2 KO. α-synuclein PFFs-induced PD mice were orally treated with Gefitinib (Gef) (30 mg/kg, once daily) after 1 month striatal α-synuclein PFF injection for 5 months and tissues were analyzed.
Mouse strain for stereotaxic α-synuclein PFFs injection: NOD2 or RIPK2 KO mice was obtained from the Jackson Laboratories (Bar Harbor, ME). All housing, breeding, and procedures were performed according to the NIH Guide for the Care and Use of Experimental Animals and approved by the Johns Hopkins University Animal Care and Use Committee.
α-synuclein protein purification and PFF preparation: Recombinant mouse α-synuclein proteins were purified as previously described with an IPTG-independent inducible pRK172 vector system. Endotoxin was depleted by ToxinEraser endotoxin removal kit (Genscript, NJ, USA). α-synuclein PFFs (5 mg ml^−1) was prepared in PBS while stirring with a magnetic stirrer (1,000 rpm at 37° C.). After a week of incubation of the α-synuclein protein, aggregates were diluted to 0.1 mg ml^−1 with PBS and sonicated for 30 s (0.5 s pulse on/off) at 10% amplitude (Branson Digital sonifier, Danbury, CT, USA). α-synuclein PFFs was validated using atomic force microscopy and transmission electron microscopy, and the ability to induce phospho-serine 129 α-synuclein (p-α-synSer129) was confirmed using immunostaining. α-synuclein PFFs was stored at −80° C. until use.
Stereotaxic α-synuclein PFFs injection and Immunohistochemistry (IHC): For stereotaxic injection of α-synuclein PFFs, 3 months old NOD2 KO or RIPK2 KO male and female mice were anesthetized with xylazene and ketamine. An injection cannula (26.5 gauge) was applied stereotaxically into the striatum (STR) (mediolateral, 2.0 mm from bregma; anteroposterior, 0.2 mm; dorsoventral, 2.6 mm) unilaterally into the right hemisphere. The infusion of 2 μL α-synuclein PFFs ([…] in PBS) or the same volume of PBS was performed at a rate of 0.2 μL per min. After the final dose, the injection cannula was maintained in the STR for additional 5 min for a complete absorption of the α-synuclein PFFs or PBS then slowly removed from the mouse brain. The head skin was closed by suturing and wound healing and recovery were monitored following surgery. For IHC analysis, animals were perfused and fixed intracardially with ice-cold PBS followed by 4% paraformaldehyde at 3 months after striatal α-synuclein PFFs injections. The brain was removed and processed for immunohistochemistry. IHC for pS129-α-synuclein immunoreactivity was performed at 3 months after the unilateral striatal α-synuclein PFFs injections. Treatment of Gefitinib was accomplished after one month of unilateral striatal α-synuclein PFFs injection, once daily.

## COc1cc2ncnc(Nc3ccc(F)c(Cl)c3)c2cc1OCCCN1CCOCC1 [Gefitinib]
Gefitinib 30 mg/kg oral once daily, PFF-injected mice, Veh + PFFs 32.14 ± 1.93, mean ± SEM, n = 5
  # of p-αSyn positive signal in the SN: 16.49 ± 2.01
Gefitinib 30 mg/kg oral once daily, PFF-injected mice, Veh + PFFs 1138.72 ± 91.48, mean ± SEM, n = 5
  # of microglia in the SN: 409.15 ± 94.27
IHC, vs non-treated PD mice, in words
  microglia activation in the ventral midbrain: suppresses microglia activation
Oral administration, in words
  α-synuclein PFFs induced pathologies in mice: significantly rescues α-synuclein PFFs induced pathologies
Ventral midbrain, IHC, vs non-treated PD mice, in words
  LB pathology (pS129-α-synuclein immunoreactivity): significantly ameliorates LB pathology
